Measurements reported in ChEMBL document CHEMBL4190311, “Discovery of cycloalkyl-fused N-thiazol-2-yl-benzamides as tissue non-specific glucokinase activators: Design, synthesis, and biological evaluation” (Eur J Med Chem, 2017).
The source made the active and inactive calls. The rule behind the calls is not given here.

Assays:
[1] = molecular target: T1, Hexokinase-4 (Homo sapiens, UniProt P35557); test: Activation of recombinant human liver glucokinase 2 assessed as […] in presence of 5 mM glucose by G6PDH coupled assay
T1 sequence (P35557 whole entry): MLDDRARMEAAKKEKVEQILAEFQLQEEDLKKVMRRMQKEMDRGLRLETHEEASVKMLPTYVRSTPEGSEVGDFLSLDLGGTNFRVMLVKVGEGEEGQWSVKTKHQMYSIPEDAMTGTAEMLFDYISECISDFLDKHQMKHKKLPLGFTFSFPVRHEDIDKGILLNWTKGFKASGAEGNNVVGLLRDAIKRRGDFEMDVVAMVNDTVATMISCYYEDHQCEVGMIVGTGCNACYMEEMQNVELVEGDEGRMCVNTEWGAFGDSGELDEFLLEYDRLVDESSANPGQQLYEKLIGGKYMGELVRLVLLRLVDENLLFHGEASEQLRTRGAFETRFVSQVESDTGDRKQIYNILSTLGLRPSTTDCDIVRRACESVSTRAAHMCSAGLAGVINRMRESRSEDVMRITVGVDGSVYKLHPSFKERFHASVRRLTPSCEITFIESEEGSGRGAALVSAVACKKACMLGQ

[2] = molecular target: T2, Hexokinase-4 (Rattus norvegicus) (UniProt P17712); test: Activation of glucokinase in rat INS1(832/13) cells assessed as increase in glucose sensitive insulin secretion at 20 uM after 2 hrs in presence of 5.5 mM glucose by AlphaLISA method relative to control; assay type: cell-based
T2 sequence (whole entry): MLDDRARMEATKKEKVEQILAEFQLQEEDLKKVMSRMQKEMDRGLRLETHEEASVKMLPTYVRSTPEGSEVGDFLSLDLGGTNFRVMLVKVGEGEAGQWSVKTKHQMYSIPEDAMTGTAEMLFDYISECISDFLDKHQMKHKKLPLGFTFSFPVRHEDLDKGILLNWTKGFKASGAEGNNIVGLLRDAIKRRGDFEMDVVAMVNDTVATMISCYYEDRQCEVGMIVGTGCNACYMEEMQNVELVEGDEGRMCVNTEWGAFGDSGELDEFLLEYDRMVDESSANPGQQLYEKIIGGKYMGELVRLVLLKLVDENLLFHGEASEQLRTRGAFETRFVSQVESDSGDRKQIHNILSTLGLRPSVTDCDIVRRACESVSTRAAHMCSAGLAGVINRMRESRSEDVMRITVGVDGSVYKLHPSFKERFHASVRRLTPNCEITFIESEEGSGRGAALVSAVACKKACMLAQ

[3] = test system: Hepatocyte; test: Increase in glucose uptake in mouse primary hepatocytes assessed as glucose uptake level at 20 uM after 24 hrs by glucose oxidase method relative to control; assay type: functional

COCC(C)Oc1cc(Oc2ccc(S(C)(=O)=O)cc2)cc(C(=O)Nc2nc3c(s2)CN(Cc2ccccc2)CC3)c1 (stereo unspecified)
EC50 [1]: > 10000 nM

COCC(C)Oc1cc(Oc2ccc(C(=O)N(C)C)cc2)cc(C(=O)Nc2nc3c(s2)CN(C(=O)OC(C)(C)C)CC3)c1 (stereo unspecified)
fold change (FC) [2]: 1.24 | Activity [3]: inactive | EC50 [1]: 90 nM

CC(C)(C)OC(=O)N1CCc2nc(NC(=O)c3cc(OCc4ccccc4)cc(Oc4ccc(S(C)(=O)=O)cc4)c3)sc2C1
fold change (FC) [2]: inactive | Activity [3]: 21% | EC50 [1]: 7000 nM

COCC(C)Oc1cc(Oc2ccc(S(C)(=O)=O)cc2)cc(C(=O)Nc2nc3c(s2)CN(c2ccncc2)CC3)c1 (stereo unspecified)
fold change (FC) [2]: 1.3 | Activity [3]: inactive | EC50 [1]: 210 nM

COCC(C)Oc1cc(Oc2cccc(S(C)(=O)=O)c2)cc(C(=O)Nc2nc3c(s2)CN(C(=O)OC(C)(C)C)CC3)c1 (stereo unspecified)
fold change (FC) [2]: 1.14 | Activity [3]: 25% | EC50 [1]: 820 nM

COC[C@H](C)Oc1cc(Oc2ccc(C(=O)N3CCC3)cc2)cc(C(=O)Nc2nc3c(s2)CN(c2ccncn2)CC3)c1
fold change (FC) [2]: 4.62 | Activity [3]: 16% | EC50 [1]: 490 nM

CC(C)(C)OC(=O)N1CCc2nc(NC(=O)c3cc(Oc4ccc(S(C)(=O)=O)cc4)cc(OC4CCCC4)c3)sc2C1
fold change (FC) [2]: inactive | Activity [3]: 26% | EC50 [1]: 180 nM

COC[C@H](C)Oc1cc(Oc2ccc(C(=O)N3CCC3)cc2)cc(C(=O)Nc2nc3c(s2)CN(CCO)CC3)c1
EC50 [1]: 4600 nM

CCN1CCc2nc(NC(=O)c3cc(Oc4ccc(S(C)(=O)=O)cc4)cc(OC(C)COC)c3)sc2C1 (stereo unspecified)
EC50 [1]: 5420 nM

COCC(C)Oc1cc(Oc2ccc(C(=O)N3CCC3)nc2)cc(C(=O)Nc2nc3c(s2)CN(C(=O)OC(C)(C)C)CC3)c1 (stereo unspecified)
fold change (FC) [2]: 5.4 | Activity [3]: inactive | EC50 [1]: 870 nM

COC[C@H](C)Oc1cc(Oc2ccc(C(=O)N3CCC3)cc2)cc(C(=O)Nc2nc3c(s2)N(C(=O)OC(C)(C)C)CCC3)c1
EC50 [1]: 6080 nM

COC[C@H](C)Oc1cc(Oc2ccc(C(=O)N3CCC3)cc2)cc(C(=O)Nc2nc3c(s2)CN(C(=O)N(C)C)CC3)c1
fold change (FC) [2]: 3.52 | Activity [3]: 21% | EC50 [1]: 500 nM

COCC(C)Oc1cc(Oc2ccc(S(C)(=O)=O)cc2)cc(C(=O)Nc2nc3c(s2)CN(C(C)C)CC3)c1 (stereo unspecified)
EC50 [1]: 7080 nM

COCC(C)Oc1cc(Oc2ccc(S(C)(=O)=O)cc2)cc(C(=O)Nc2nc3c(s2)CN(C)CC3)c1 (stereo unspecified)
EC50 [1]: 8420 nM

COC[C@H](C)Oc1cc(Oc2ccc(C(=O)N3CCC3)cc2)cc(C(=O)Nc2nc3c(s2)CN(c2cc[nH]c(=O)c2)CC3)c1
fold change (FC) [2]: 5.51 | Activity [3]: inactive | EC50 [1]: 300 nM

COC[C@H](C)Oc1cc(Oc2ccc(C(=O)N3CCC3)c(F)c2)cc(C(=O)Nc2nc3c(s2)CN(C(=O)OC(C)(C)C)CC3)c1
fold change (FC) [2]: 1.1 | Activity [3]: 19% | EC50 [1]: 330 nM

COCC(C)Oc1cc(Oc2ccc(S(C)(=O)=O)cc2)cc(C(=O)Nc2nc3c(s2)CN(C(=O)OC(C)(C)C)CC3)c1 (stereo unspecified)
fold change (FC) [2]: 1.72 | Activity [3]: 36% | EC50 [1]: 320 nM

COCC(C)Oc1cc(Oc2ccc(S(C)(=O)=O)cc2)cc(C(=O)Nc2nc3c(s2)CCC3)c1 (stereo unspecified)
fold change (FC) [2]: inactive | Activity [3]: 31% | EC50 [1]: 100 nM

COCC(C)Oc1cc(Oc2ccc(S(=O)(=O)C3CC3)cc2)cc(C(=O)Nc2nc3c(s2)CN(C(=O)OC(C)(C)C)CC3)c1 (stereo unspecified)
EC50 [1]: 230 nM

COCC(C)Oc1cc(Oc2ccc(S(C)(=O)=O)cc2)cc(C(=O)Nc2nc3c(s2)CN(C(C)=O)CC3)c1 (stereo unspecified)
EC50 [1]: 2220 nM

C[C@@H](CO)Oc1cc(Oc2ccc(C(=O)N3CCC3)cc2)cc(C(=O)Nc2nc3c(s2)CN(C(=O)OC(C)(C)C)CC3)c1
EC50 [1]: 1300 nM

COCCOc1cc(Oc2ccc(S(C)(=O)=O)cc2)cc(C(=O)Nc2nc3c(s2)CN(C(=O)OC(C)(C)C)CC3)c1
EC50 [1]: 2230 nM

COCC(C)Oc1cc(Oc2ccc(S(C)(=O)=O)cc2)cc(C(=O)Nc2nc3c(s2)CN(c2cccnc2)CC3)c1 (stereo unspecified)
EC50 [1]: 1090 nM

COCC(C)Oc1cc(Oc2ccc(S(C)(=O)=O)cc2)cc(C(=O)Nc2nc3c(s2)C(=O)CCC3)c1 (stereo unspecified)
EC50 [1]: > 10000 nM

COC[C@H](C)Oc1cc(Oc2ccc(C(=O)N3CCC3)cc2)cc(C(=O)Nc2nc3c(s2)CNCC3)c1
EC50 [1]: 1130 nM

COCC(C)Oc1cc(Oc2ccccc2S(C)(=O)=O)cc(C(=O)Nc2nc3c(s2)CN(C(=O)OC(C)(C)C)CC3)c1 (stereo unspecified)
EC50 [1]: > 10000 nM

COC[C@@H](C)Oc1cc(Oc2ccc(C(=O)N3CCC3)cc2)cc(C(=O)Nc2nc3c(s2)CN(C(=O)OC(C)(C)C)CC3)c1
EC50 [1]: 2600 nM

COCC(C)Oc1cc(Oc2ccc(S(C)(=O)=O)cc2)cc(C(=O)Nc2nc3c(s2)CN(c2ccccn2)CC3)c1 (stereo unspecified)
EC50 [1]: 890 nM

COC[C@H](C)Oc1cc(Oc2ccc(C(=O)N3CCC3)cc2)cc(C(=O)Nc2nc3c(s2)CCN(C(=O)OC(C)(C)C)C3)c1
fold change (FC) [2]: 2.24 | Activity [3]: 13% | EC50 [1]: 460 nM

COCC(C)Oc1cc(Oc2ccc(S(C)(=O)=O)cc2)cc(C(=O)Nc2nc3c(s2)COCC3)c1 (stereo unspecified)
EC50 [1]: > 10000 nM

CCOC(=O)N1CCc2nc(NC(=O)c3cc(Oc4ccc(C(=O)N5CCC5)cc4)cc(O[C@@H](C)COC)c3)sc2C1
fold change (FC) [2]: 5.45 | Activity [3]: 17% | EC50 [1]: 230 nM

COCC(C)Oc1cc(Oc2ccc(S(=O)(=O)N3CCC3)cc2)cc(C(=O)Nc2nc3c(s2)CN(C(=O)OC(C)(C)C)CC3)c1 (stereo unspecified)
fold change (FC) [2]: 1.37 | Activity [3]: inactive | EC50 [1]: 900 nM

COC[C@H](C)Oc1cc(Oc2ccc(C(=O)N3CCC3)cc2)cc(C(=O)Nc2nc3c(s2)CN(c2ccccn2)CC3)c1
fold change (FC) [2]: 2.47 | Activity [3]: 15% | EC50 [1]: 290 nM

COC[C@H](C)Oc1cc(Oc2ccc(C(=O)N3CCC3)cc2)cc(C(=O)Nc2nc3c(s2)CN(c2ncccn2)CC3)c1
fold change (FC) [2]: 6.51 | Activity [3]: 14% | EC50 [1]: 170 nM

CC(C)Oc1cc(Oc2ccc(S(C)(=O)=O)cc2)cc(C(=O)Nc2nc3c(s2)CN(C(=O)OC(C)(C)C)CC3)c1
fold change (FC) [2]: inactive | Activity [3]: 34% | EC50 [1]: 170 nM

CCS(=O)(=O)c1ccc(Oc2cc(OC(C)COC)cc(C(=O)Nc3nc4c(s3)CN(C(=O)OC(C)(C)C)CC4)c2)cc1 (stereo unspecified)
fold change (FC) [2]: inactive | Activity [3]: 34% | EC50 [1]: 140 nM

COC[C@H](C)Oc1cc(Oc2ccc(C(=O)N3CCC3)cc2)cc(C(=O)Nc2nc3c(s2)CN(C(=O)OC)CC3)c1
fold change (FC) [2]: 5.68 | Activity [3]: 16% | EC50 [1]: 690 nM

COC[C@H](C)Oc1cc(Oc2cc(F)cc(F)c2)cc(C(=O)Nc2nc3c(s2)CN(C(=O)OC(C)(C)C)CC3)c1
fold change (FC) [2]: 1.3 | Activity [3]: 15% | EC50 [1]: 200 nM

COCC(C)Oc1cc(Oc2ccc(S(C)(=O)=O)cc2)cc(C(=O)Nc2nc3c(s2)CN(c2ccccc2)CC3)c1 (stereo unspecified)
EC50 [1]: > 10000 nM

CC(C)(C)OC(=O)N1CCc2nc(NC(=O)c3cc(OCC4CCCC4)cc(Oc4ccc(S(C)(=O)=O)cc4)c3)sc2C1
EC50 [1]: > 10000 nM

COCCN1CCc2nc(NC(=O)c3cc(Oc4ccc(C(=O)N5CCC5)cc4)cc(O[C@@H](C)COC)c3)sc2C1
fold change (FC) [2]: 6.07 | Activity [3]: 13% | EC50 [1]: 210 nM

CC(C)(C)OC(=O)N1CCc2nc(NC(=O)c3cc(Oc4ccc(S(C)(=O)=O)cc4)cc(OC4CCCCC4)c3)sc2C1
fold change (FC) [2]: inactive | Activity [3]: 29% | EC50 [1]: 550 nM

COCC(C)Oc1cc(Oc2ccc(S(C)(=O)=O)nc2)cc(C(=O)Nc2nc3c(s2)CN(C(=O)OC(C)(C)C)CC3)c1 (stereo unspecified)
fold change (FC) [2]: 1.42 | Activity [3]: 35% | EC50 [1]: 200 nM
